Measured values from ChEMBL document CHEMBL1201862, “PubChem BioAssay data set” (2004).
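Compound exposure: 48 hours, 5 concentrations, 96-well plates. GI50 = concentration required for 50% inhibition of growth.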 Active and inactive are the calls of the source. Rule as the data show it: active = GI50 up to about 1.1 µM and inactive = higher.

Assays:
Experiment in all cases: NCI-60 cell line screen, 48 h
[1] = tested on: MCF7
[2] = tested on: UACC-62
[3] = tested on: RPMI-8226
[4] = tested on: HCT-15
[5] = tested on: NCI-H226
[6] = tested on: HOP-92
[7] = tested on: PC-3
[8] = tested on: SF-268
[9] = tested on: NCI-H460
[10] = tested on: SK-OV-3
[11] = tested on: K562
[12] = tested on: 786-0
[13] = tested on: SNB-19
[14] = tested on: SNB-75
[15] = tested on: OVCAR-5
[16] = tested on: MDA-N
[17] = tested on: SF-539
[18] = tested on: HCC 2998
[19] = tested on: Hs-578T

SMILES | GI50 [1] | GI50 [2] | GI50 [3] | GI50 [4] [µM] | GI50 [5] | GI50 [6] | GI50 [7] | GI50 [8] | GI50 [9] | GI50 [10] | GI50 [11] | GI50 [12] | GI50 [13] | GI50 [14] | GI50 [15] | GI50 [16] | GI50 [17] | GI50 [18] | GI50 [19]
Cc1cccc2nc3n(c12)C(=O)c1ccccc1-3 | > 100 µM (inactive) | > 100 µM (inactive) | > 100 µM (inactive) | > 100 | > 100 µM (inactive) | > 100 µM (inactive) | > 100 µM (inactive) | > 100 µM (inactive) | > 100 µM (inactive) | > 100 µM (inactive) | > 100 µM (inactive) | > 100 µM (inactive) | > 100 µM (inactive) | > 100 µM (inactive) | > 100 µM (inactive) | 43.2 µM (inactive) | > 100 µM (inactive) | > 100 µM (inactive) | 
Nn1c(=S)[nH]nc(/C=C/c2c(O)ccc3ccccc23)c1=O | 2.72 µM (inactive) | 4.88 µM (inactive) | 28.6 µM (inactive) | 3.13 |  |  | 11.1 µM (inactive) | 2.96 µM (inactive) | 4.58 µM (inactive) | 11 µM (inactive) | 5.27 µM (inactive) | 5.46 µM (inactive) | 21.8 µM (inactive) |  | 7.08 µM (inactive) | 12.3 µM (inactive) | 19.3 µM (inactive) | 7.5 µM (inactive) | 
COC(=O)[C@H]1C[C@H]1NC(=O)C(CC(=O)OCc1ccccc1)NC(=O)OCc1ccccc1 (stereo partly drawn) | 44.1 µM (inactive) |  | 19.1 µM (inactive) | 73.1 | 89.5 µM (inactive) |  | 35.3 µM (inactive) | 55.2 µM (inactive) | 31.2 µM (inactive) | 55 µM (inactive) | 59.7 µM (inactive) | > 100 µM (inactive) | > 100 µM (inactive) | 36.2 µM (inactive) | > 100 µM (inactive) | 60.1 µM (inactive) | 97.5 µM (inactive) | 88.3 µM (inactive) | > 100 µM (inactive)
O=C1CC2(CCN(CC3COc4ccccc4O3)CC2)C(=O)N1N1CCCCCC1 (stereo not drawn) | 37.2 µM (inactive) | > 100 µM (inactive) | 59.8 µM (inactive) | > 100 | 51.9 µM (inactive) | 87.3 µM (inactive) | 27.5 µM (inactive) | > 100 µM (inactive) |  | > 100 µM (inactive) | 15.6 µM (inactive) | > 100 µM (inactive) | > 100 µM (inactive) | 76.4 µM (inactive) | 48.5 µM (inactive) |  | > 100 µM (inactive) |  | 44.1 µM (inactive)
O=C(Cc1ccccc1)NS(=O)(=O)c1ccccc1 |  | > 100 µM (inactive) | > 100 µM (inactive) |  | > 100 µM (inactive) | > 100 µM (inactive) |  | > 100 µM (inactive) | > 100 µM (inactive) | > 100 µM (inactive) | > 100 µM (inactive) | > 100 µM (inactive) | > 100 µM (inactive) | > 100 µM (inactive) | > 100 µM (inactive) |  | > 100 µM (inactive) | > 100 µM (inactive) | 
COc1ccc2oc(=O)c3c(c2c1C)OC(C)(C)C=C3 | > 100 µM (inactive) | > 100 µM (inactive) | > 100 µM (inactive) | > 100 | > 100 µM (inactive) |  | > 100 µM (inactive) | 23.2 µM (inactive) | > 100 µM (inactive) | > 100 µM (inactive) | > 100 µM (inactive) | > 100 µM (inactive) | > 100 µM (inactive) | > 100 µM (inactive) | > 100 µM (inactive) | > 100 µM (inactive) | > 100 µM (inactive) | > 100 µM (inactive) | > 100 µM (inactive)
CN(C)CCCN1c2ccccc2CCc2cc([N+](=O)[O-])ccc21 | 16.8 µM (inactive) | 14.3 µM (inactive) | 18 µM (inactive) | 18.5 | 17.5 µM (inactive) |  | 16.7 µM (inactive) | 14.7 µM (inactive) | 15 µM (inactive) |  | 16.9 µM (inactive) | 15.2 µM (inactive) | 16.9 µM (inactive) | 12.9 µM (inactive) | 16.5 µM (inactive) | 15 µM (inactive) | 15.1 µM (inactive) | 12.2 µM (inactive) | 16.2 µM (inactive)
CCOC(=O)c1cnc(-n2[nH]c3c(c2=O)CCCC3)[nH]c1=O |  | 29.6 µM (inactive) | 52.7 µM (inactive) | 44.1 | 47.1 µM (inactive) | 0.859 µM (active) | 57.4 µM (inactive) | 55.8 µM (inactive) | 45.5 µM (inactive) | 80.5 µM (inactive) | 20.7 µM (inactive) | 60 µM (inactive) | > 100 µM (inactive) |  | 82.4 µM (inactive) | 86.1 µM (inactive) | 48.1 µM (inactive) |  | > 100 µM (inactive)
O=[N+]([O-])c1ccc(-c2cn(-c3ccc(Cl)cc3)cn2)cc1 | 71.6 µM (inactive) | 92 µM (inactive) | 89.5 µM (inactive) | > 100 | 48.5 µM (inactive) |  | > 100 µM (inactive) | 14.2 µM (inactive) | 18.5 µM (inactive) | 11.6 µM (inactive) | > 100 µM (inactive) | 16.6 µM (inactive) | 67 µM (inactive) | 8.57 µM (inactive) | > 100 µM (inactive) | > 100 µM (inactive) | 3.8 µM (inactive) | > 100 µM (inactive) | 41.6 µM (inactive)
C/C(=N/NC(=S)N1CCCC1)c1cccc(/C(C)=N\NC(=S)N2CCCC2)n1 |  | 2.25 µM (inactive) | 2.06 µM (inactive) | 0.492 | 1.62 µM (inactive) |  | 0.076 µM (active) | 1.68 µM (inactive) | 1.06 µM (active) | 1.46 µM (inactive) | 0.0468 µM (active) | 1.37 µM (inactive) | 2.57 µM (inactive) | 1.21 µM (inactive) | 1.7 µM (inactive) | 1.38 µM (inactive) | 1.36 µM (inactive) | 1.21 µM (inactive) | 3.49 µM (inactive)
C=C1C[C@H](O)[C@H]2C(C[Se]c3ccccc3)C(=O)O[C@@H]2[C@H]2[C@H](C)C(O)C[C@@H]12 (stereo partly drawn) | > 100 µM (inactive) | 19.1 µM (inactive) | 23.9 µM (inactive) | 13.8 | 23.1 µM (inactive) | 29.3 µM (inactive) | 22.7 µM (inactive) | 67.6 µM (inactive) | 34 µM (inactive) | > 100 µM (inactive) | 36.6 µM (inactive) | 33 µM (inactive) | > 100 µM (inactive) | 31.8 µM (inactive) | 20.6 µM (inactive) |  | 55.3 µM (inactive) |  | 32.8 µM (inactive)
CC1(C)OCC2OC3([C@@H]4OC(C)(C)O[C@H]4CO)OC(C)(C)OC3C2O1 (stereo partly drawn) | > 100 µM (inactive) | > 100 µM (inactive) | > 100 µM (inactive) | > 100 | > 100 µM (inactive) | > 100 µM (inactive) | > 100 µM (inactive) |  | > 100 µM (inactive) |  | > 100 µM (inactive) | > 100 µM (inactive) | > 100 µM (inactive) | > 100 µM (inactive) | > 100 µM (inactive) | > 100 µM (inactive) | > 100 µM (inactive) | > 100 µM (inactive) | 
COC(=O)[C@@]1(Cc2ccc(O)cc2)C[C@@H]2Cc3ccccc3N2N1 | 63.2 µM (inactive) | 70.8 µM (inactive) | 30.5 µM (inactive) | 81.8 | 90.8 µM (inactive) | 43.6 µM (inactive) | 34.5 µM (inactive) | > 100 µM (inactive) |  | > 100 µM (inactive) |  | > 100 µM (inactive) | > 100 µM (inactive) |  | > 100 µM (inactive) | 44.8 µM (inactive) | > 100 µM (inactive) |  | 68.4 µM (inactive)
Clc1c(C(Cl)(Cl)Cl)nsc1N1CCCCC1 | 26.1 µM (inactive) | 22 µM (inactive) | 12.6 µM (inactive) | 26.5 | 15.1 µM (inactive) |  | 31 µM (inactive) | 34 µM (inactive) | 33.6 µM (inactive) | 27.9 µM (inactive) | 19.1 µM (inactive) | 17.9 µM (inactive) | 20.7 µM (inactive) | 29 µM (inactive) | 33.7 µM (inactive) | 31 µM (inactive) | 25.3 µM (inactive) | 22.2 µM (inactive) | 31.3 µM (inactive)
O=C(Cn1c2ccc(Br)cc2c2nc3ccccc3nc21)NNC(=O)NC1CCCCC1 | 49 µM (inactive) | > 100 µM (inactive) | > 100 µM (inactive) |  |  |  | 37.7 µM (inactive) | 45.5 µM (inactive) | 47.8 µM (inactive) | 50.7 µM (inactive) | 47.1 µM (inactive) | 44.3 µM (inactive) | 89.1 µM (inactive) | 23.2 µM (inactive) | 52.8 µM (inactive) | 44 µM (inactive) | > 100 µM (inactive) | > 100 µM (inactive) | 24.4 µM (inactive)
CSc1c(C(=O)Nc2ccccc2)c(N)nn1-c1ccccc1 | > 100 µM (inactive) | > 100 µM (inactive) | > 100 µM (inactive) | > 100 | > 100 µM (inactive) |  | > 100 µM (inactive) | > 100 µM (inactive) | > 100 µM (inactive) | > 100 µM (inactive) | > 100 µM (inactive) | > 100 µM (inactive) | > 100 µM (inactive) | > 100 µM (inactive) | > 100 µM (inactive) | > 100 µM (inactive) | > 100 µM (inactive) | > 100 µM (inactive) | > 100 µM (inactive)
COc1cc2c(c(OC)c1)[C@H](C)N(Cc1ccccc1)C(C)C2 (stereo partly drawn) | 42.2 µM (inactive) | 52.5 µM (inactive) | 21.3 µM (inactive) | 28.6 | 23.7 µM (inactive) |  | > 100 µM (inactive) | 80.2 µM (inactive) | 11 µM (inactive) | > 100 µM (inactive) | 21.9 µM (inactive) | 36.1 µM (inactive) | > 100 µM (inactive) | 41.1 µM (inactive) |  | > 10 µM (inactive) | 16.6 µM (inactive) | 33 µM (inactive) | 25.5 µM (inactive)
